For assay [1], the system named is HER2 positive breast cancer (HER2+ BC) cell line JIMT-1. Nature of the assay: MTS cell viability assay, JIMT-1 breast cancer cell line. Format: cell-based. Conditions: Homo sapiens, 0 to 10 μM, FIG. 3, one range stated for both cell lines and three compounds. The method, then: (§1) Human triple-negative breast cancer (TNBC) cell line MDA-MB-231 (Cell seeding numbers: 1(M231)×10^4 cells/wells (confluency ≥25%) and HER2 positive breast cancer (HER2^+ BC) cell line JIMT-1 (Cell seeding numbers: 1.2(JIMT)×10^4 cells/wells (confluency ≥25%)) were used in the experiments.
(§2) The above mentioned cell lines were cultured under a 5% CO2 environment at 37° C. in Dulbecco's modified Eagle's medium (DMEM) containing 10% fetal bovine serum (FBS), streptomycin-penicillin (100 U/mL) and Fungizone ([…]), respectively.
(§3) The human breast cancer cell lines MDA-MB-231 and JIMT-1 were treated with thiobenzimidazole derivatives of Chemical Formula 1-1 to Chemical Formula 1-17 at concentrations of 0, 0.5, 1 and 5 μM for 72 hours, respectively, and then cell viability was measured by MTS assay. The MTS assay was performed by attaching cells to 96-well plates for 24 hours, treating them with the above mentioned thiobenzimidazole derivatives for 72 hours, and then developing them with MTS (3-(4,5-dimethylthiazol-2-yl)-5-(3-carboxymethoxyphenyl)-2-(4-sulfophenyl)-2H-tetrazolium) for 4 hours, and measuring the absorbance at 490 nm using a Spectramax Plus384 microplate analyzer.
(§4) MDA-MB-231 and JIMT-1 cell lines were treated with the thiobenzimidazole derivatives of the present disclosure (Chemical Formula 1-10, 1-11 and 1-15) at concentrations of 0. 0.01, 0.05, 0.1, 0.1, 0.25, 0.5, 1, 5 and 10 μM, respectively, and then the cell viability and corresponding IC50 values were determined. The preparation and experimentation methods for the cell lines were the same as those used in the Example 1 experiments.
(In general: Formazan colour is commonly taken as a measure of viable cells.)

Assay [2] relates to Human triple-negative breast cancer (TNBC) cell line MDA-MB-231. As to the kind of experiment: MTS cell viability assay, MDA-MB-231 breast cancer cell line. It counts as cell-based. The conditions noted are these: 0 to 10 μM, FIG. 3, one range stated for both cell lines and three compounds. The method, then:
as §1, §2, §3, §4

Data on 3 compounds can be found in patent US20250214945A1, “THIOBENZIMIDAZOLE DERIVATIVE OR PHARMACEUTICALLY ACCEPTABLE SALT THEREOF, AND USE THEREOF” (KOREA UNIVERSITY RESEARCH AND BUSINESS FOUNDATION, priority 2022, published 2025).

As a reminder, the IC50 is the concentration that gives 50% inhibition. Read a low IC50 as greater potency in that assay.

`COC(=O)Nc1nc2cc(Sc3ccc(N4CCS(=O)(=O)CC4)cc3)ccc2[nH]1` [1-10]: the IC50 in assay [1] and in assay [2] was 0.15 to 0.35 µM in each case.
With `COC(=O)Nc1nc2cc(Sc3ccc(N4CC(C)N(S(C)(=O)=O)C(C)C4)cc3)ccc2[nH]1` (stereo not drawn) [1-11], the IC50 in assay [1] and in assay [2] was 0.15 to 0.35 µM each time.
As to `COC(=O)Nc1nc2cc(Sc3ccc(N4CCC(O)CC4)cc3)ccc2[nH]1` [1-15], the IC50 in assay [1] and in assay [2] was 0.15 to 0.35 µM each time.
